Source: patent publication US20220033430A1, “ORALLY ACTIVE PRODRUG OF GEMCITABINE” (TNT Medical Corporation, priority 2018, published 2022)
“Also recorded” adds a separate entry of the source.

Key:
[1] = Mice PK study: plasma active metabolite Gemcitabine after dosing of prodrug; format: in vivo, male CD1 mouse; conditions: single dose 10, 150, 300 mg/kg
Protocol: The pharmacokinetics of compounds were evaluated in male CD1 mouse via Intravenous and Oral Administration. The iv dose was administered as a slow bolus in the Jugular vein, and oral doses were administered by gavage. The formulation is 2.5% DMSO, 10% EtOH, 20% Cremphor EL, 67.5% D5W. The PK time point 5 min, 15, 30 min, 1, 2, 4, 6, 8 hours post dose. Approximately 0.03 mL blood will be collected at each time point. Keep blood at room temperature and collect plasma within 15 min by centrifugation at 4000 g for 5 minutes in a 4° C. centrifuge. Plasma samples will be stored in polypropylene tubes. The plasma samples will be stored in a freezer at −75±15° C. prior to analysis. Concentrations of compounds and the active metaboliste Gemcitabine in the plasma samples will be analyzed using a LC-MS/MS method. WinNonlin (Phoenix, version 6.1) or other similar software will be used for pharmacokinetic calculations. The following pharmacokinetic parameters will be calculated, whenever possible from the plasma concentration versus time data: IV administration: C0, CL, Vd, T1/2, AUCinf, AUClast, MRT, Number of Points for Regression; PO administration: Cmax, Tmax, T1/2, AUCinf, AUClast, F %, Number of Points for Regression. The pharmacokinetic data will be described using descriptive statistics such as mean, standard deviation. […]

[2] = Water solubility observed during formulation for the PK study; format: physicochemical; conditions: compared with LY2334737
[3] = tested on: ovarian cancer A2780 xenograft model; test: In vivo xenograft study, ovarian cancer A2780 model; set-up: species or system mice; conditions: for Tumor volume: A2780 xenograft
Excerpt: Compound of Example 2 was selected for in vivo studies in the ovarian cancer A2780 xenograft model. Typically, athymic nude mice (CD-1 nu/nu) or SCID mice are obtained at age 6-8 weeks from vendors and acclimated for a minimum 7-day period. The cancer cells are then implanted into the nude mice. Depending on the specific tumor type, tumors are typically detectable about two weeks following implantation. When tumor sizes reach ˜100-200 mm^3, the animals with appreciable tumor size and shape are randomly assigned into groups of 8 mice each, including one vehicle control group and treatment groups. Dosing varies depending on the purpose and length of each study, which typically proceeds for about 3-4 weeks. Tumor sizes and body weight are typically measured three times per week. In addition to the determination of tumor size changes, the last tumor measurement is used to generate the tumor size change ratio (T/C value), a standard metric developed by the National Cancer Institute for xenograft tumor evaluation. In most cases, % T/C values are calculated using the following formula: % T/C=100×ΔT/ΔC if ΔT>0. When tumor regression occurred (ΔT<0), however, the following formula is used: % T/T0=100×ΔT/T0. Values of <42% are considered significant.
Ovarian Cancer is the 5th most common cancer in women: ˜ 22,280 new cases and 14,240 death in 2016 in US. In China, Ovarian Cancer has more than 100,000 new cases each year. Gemcitabine (intravenous dosing) is the 2nd line SOC of Ovarian Cancer.

[4] = mice, single oral (gavage) dose of 167, 333, or 500 mg/kg; cited from earlier work
[5] = LY2334737 QD, Japanese patients, 2013; cited from earlier work

Q: What does the source list for `CCCC(CCC)C(=O)Nc1ccn([C@@H]2O[C@H](COC(=O)C(C)C)[C@@H](OC(=O)[C@@H](N)C(C)C)C2(F)F)c(=O)n1` [Example 2, (2R,3R,5R)-4,4-difluoro-2-[[(2-methylpropanoyl)oxy]methyl]-5-[2-oxo-4-(2-propylpentanamido)-1,2-dihydropyrimidin-1-yl]oxolan-3-yl (2S)-2-amino-3-methylbutanoate]?
A: PK linearity of active metabolite Gemcitabine [1]: good PK linearity; water solubility [2]: significant higher water solubility than LY2334737; also recorded: excellent water solubility; efficacy compared with Gemcitabine (IV dosing) ([3]; A2780 model, Example 2 oral dosing): better efficacy than Gemcitabine (IV dosing); Tumor volume ([3]; 75 mg/kg po q4d × 7): 65 mm^3

Q: With `Nc1ccn([C@@H]2O[C@H](CO)[C@@H](O)C2(F)F)c(=O)n1` [Gemcitabine] as the compound, how does the Tumor volume ([3]; 120 mg/kg IV qw × 4) read?
A: 442 mm^3

Q: What about the “adverse dose-limiting intestinal lesions” value [4] of the same compound?
A: moderate-to-marked loss of mucosal epithelium (atrophic enteropathy)

Q: Which hepatic toxicity [5] does the source give for `CCCC(CCC)C(=O)Nc1ccn([C@@H]2O[C@H](CO)[C@@H](O)C2(F)F)c(=O)n1` [LY2334737] here?
A: unexpected hepatic toxicities were observed
